# Results published in PubChem BioAssay AID1508591.
# Conditions: rat; liver microsomes; pH 7.4; 15.0 min; 1.0 µM
row,SMILES,half-life [min]
1,CC1CCc2cc(F)ccc2N1C(=O)CSc1nnc2c(n1)[nH]c1ccccc12 (centres undefined),2.02
2,Cn1cc(S(=O)(=O)N2CCOCC2)cc1C(=O)Nc1ccc(Cl)c(C(F)(F)F)c1,> 30
3,Clc1ccc(-c2nnc(C3CCCCC3)o2)cc1,2.9
4,O=S(=O)(Nc1nc2ccccc2s1)c1ccc(NCc2cccc(Cl)c2O)cc1,> 30
5,NC(=O)C1CCN(c2nc(-c3ccc(F)cc3)cs2)CC1,7.09
6,Cc1ccccc1C(=O)N1CCC(C(=O)N2CCC(N3Cc4ccccc4C3=O)CC2)CC1,11.8
7,c1cc(-c2cc(-c3ccncc3)c3cncn3c2)c2[nH]ncc2c1,10.1
8,O=C(NCCCc1ccccc1)C1CCN(c2nc(-c3ccc(Br)cc3)cs2)CC1,2.96
9,NC(=O)C1CCN(c2ncc(-c3ccc4c(c3)OCCO4)s2)CC1,4.94
10,CCc1ccc(C2C(C(=O)Nc3ccccc3OC)=C(C)Nc3c(C(=O)Nc4ccc(C)cc4)cnn32)cc1 (centres undefined),2.75
11,COc1ccc(CNc2ccc(S(=O)(=O)Nc3nccs3)cc2)c(O)c1,3.9
12,COc1ccc(-n2nc(C3CCN(C(=O)c4ccccc4)CC3)[nH]c2=O)cc1,> 30
13,COc1cc2c(Nc3ccc(Br)cc3F)ncnc2cc1OCC1CCN(C)CC1,> 30
14,OCCn1cc(-c2cnc3nnn(Cc4ccc5ncccc5c4)c3n2)cn1,> 30
15,FC(F)(F)c1cccc(Nc2ccc(CNc3nc(-c4ccccc4C(F)(F)F)nc4ccccc34)cc2)c1,15.6
16,CC(=O)c1sc(NC(=O)c2ccco2)nc1-c1ccccc1,1.8
17,O=C(O)c1ccnc2cc(C(OCCN3CCCCC3)c3ccccc3Cl)[nH]c12 (centres undefined),> 30
18,CN1CCN(c2cc(-c3nc(Nc4ccc(F)c(F)c4)c4ccccc4n3)ccn2)CC1,5.3
19,O=C(O)c1ccccc1C(=O)Nc1ccc(-c2ccccc2)cc1,> 30
20,Cc1ccc(NC(=O)Nc2cc3c(cc2N2CCCCC2)n(C)c(=O)n3C)cc1Cl,6.3
21,Cc1cc(C)nc(NC(=S)N2CCN(c3ccc(C(F)(F)F)cc3[N+](=O)[O-])CC2)c1,> 30
22,CC(C)(C)c1cc(NC(=O)Nc2ccc(-c3cn4c(n3)sc3cc(OCCN5CCOCC5)ccc34)cc2)no1,> 30
23,CC[C@H]1CN2CCc3cc(OC)c(OC)cc3[C@@H]2C[C@@H]1C[C@H]1NCCc2cc(OC)c(OC)cc21,> 30
24,COc1ccc(-c2c(-c3cc(C(=O)O)ccn3)ncn2C)cc1,> 30
25,COc1ccc(-n2nc(C)c([C@@H]3C=C[C@@H](NCc4ccc(F)cc4)C3)c2C)cc1,6.66

row,SMILES,half-life [min]
1,O=C(Nc1ccc(Cl)cc1)Nc1ccc(Cl)c(Cl)c1,> 30
2,Clc1ccc(Nc2nc(-c3ccncc3)nc3ccccc23)cc1Cl,15
3,CC1=C(C(=O)Nc2ccccc2)C(c2ccccc2Cl)N=C(Nc2nc3ccccc3o2)N1 (centres undefined),24
4,COc1ccc2c3c([nH]c2c1)C1CC2C(CC(O)C(OC)C2CO)CN1CC3 (centres undefined),> 30
5,CC(C)(O)CCc1ccc(OCc2cc(-c3cccc(OC(F)F)c3)c3ncccc3c2)cc1,> 30
6,O=C(Nc1nc(-c2ccccc2)cs1)c1ccncc1NS(=O)(=O)c1ccc(N2CCCC2=O)cc1,1.6
7,CCc1ccc(-n2nnc(-c3nsc(NC(=O)c4ccccc4Cl)n3)c2C)cc1,10.9
8,Cc1ccc(S(=O)(=O)Nc2ccccc2C(=O)Nc2ncc(-c3ccccc3)o2)cc1,3.5
9,Brc1ccc(-c2csc(N3CCNCC3)n2)cc1,3.31
10,CC(C)c1ccc2oc3nc(N)c(C(=O)O)cc3c(=O)c2c1,> 30
11,Cc1cccc(S(=O)(=O)c2cn(Cc3ccccc3)c3cc(N4CCCCC4C)c(F)cc3c2=O)c1 (centres undefined),2
12,CC(=O)N1CCc2cc(-c3nc(NC(=O)Cc4ccc5c(c4)OCO5)sc3C)ccc21,20
13,CC(C)(C)NS(=O)(=O)c1ccc(-c2ccc3[nH]nc(N)c3c2)cc1,17.2
14,Cc1ccc(S(=O)(=O)Nc2ccc(Cl)c(C(=O)Nc3nc(-c4ccccc4)cs3)c2)cc1,18
15,COCc1cc(C)nc(SCC(=O)c2ccc(O)c(O)c2)c1C#N,19
16,NC(=O)NCC(=O)N[C@H]1CC[C@H](Nc2nccc(-c3ccncc3)n2)C1,> 30
17,Cc1cc(C)nc(NC(=S)N2CCN(c3ccc(C(F)(F)F)cc3Cl)CC2)c1,> 30
18,CCc1ccccc1OC[C@@H](O)CN[C@H]1CCCc2ccccc21,1.8
19,CC(=O)OC[C@]12CCC(C)=C[C@H]1O[C@@H]1[C@H](O)[C@@H](OC(C)=O)[C@@]2(C)[C@]12CO2,> 30
20,O=C(NCC1CCN(Cc2cccc(Cl)c2)CC1)Nc1ccc(F)c(Cl)c1,22.7
21,N#Cc1cnc(NS(=O)(=O)c2ccc(NC(=O)Cc3ccc(F)c(Cl)c3)cc2)s1,> 30
22,O=S(=O)(Nc1cnc2ccccc2c1)c1ccc(NCc2cccc(Cl)c2O)cc1,18
23,O=C(Nc1ccc(Cl)c(S(=O)(=O)N2CCOCC2)c1)c1ccc(S(=O)(=O)N2CCCCC2)cc1,3
24,Cc1sc(NC(=O)Cc2ccc3c(c2)OCO3)nc1-c1ccc2c(c1)CCN2C(=O)c1ccccc1F,20
25,Cc1ccc(S(=O)(=O)NCC(=O)Nc2nc(-c3ccccc3)cs2)cc1,2.1

row,SMILES,half-life [min]
1,CC(C=CC(=O)NO)=C[C@@H](C)C(=O)c1ccc(N(C)C)cc1,4.06
2,COCCNc1ncnc2onc(-c3ccc(F)cc3)c12,> 30
3,O=S(=O)(Nc1cccc2ccccc12)c1ccc(NCc2ccc(Br)cc2O)cc1,7.4
4,CN(C)c1ccc(S(=O)(=O)N2CCCCC2)cc1NS(=O)(=O)c1ccc2ccccc2c1,1.34
5,Cc1ccc(CC(=O)Nc2nc(-c3ccc4c(c3)CCN4C(=O)c3ccccc3C)c(C)s2)cc1C,19
6,CCn1nnnc1Sc1ncnc2scc(-c3ccc(C)cc3)c12,1.4
7,O=C1/C(=C\c2ccccc2)C[C@@]2(O)C3Cc4ccc(O)c5c4[C@@]2(CCN3CC2CC2)[C@H]1O5,3.37
8,NC(=O)C1CCN(c2nc(-c3ccccc3)cs2)CC1,3.88
9,CC(=O)c1c(C)c(C(=O)Nc2cccc([S+](=O)([O-])N(C)C)c2)n(C)c1C,15
10,Fc1ccc(Nc2nc(-c3ccncc3F)nc3ccccc23)cc1F,20
11,Cc1ccc(S(=O)(=O)Nc2cnccc2C(=O)NCCc2ccccc2)cc1,4.9
12,C[C@H]1CN(C(=O)c2nn(C)c3ccccc23)C[C@@H]1c1nc(-c2cccnc2)no1,4.4
13,Fc1cccc(CNc2nc(-c3ccccc3C(F)(F)F)nc3ccccc23)c1,2.55
14,c1ccc(Nc2nc(NCc3ccco3)c3ccccc3n2)cc1,2.09
15,COc1ccc(-n2c(C)c(C(C)=O)c3cc(OC(=O)COc4ccccc4)ccc32)cc1,10.4
16,COc1cccc(CNCCSc2nnnn2C)c1OCc1ccc(Cl)cc1Cl,1.35
17,O=C(Nc1ccc(N2CCN(c3ncccc3C(F)(F)F)CC2)nc1)c1cccs1,10.3
18,O=S(=O)(Nc1ccc(-c2ccccc2)cc1)c1ccc(NCc2ccc(Br)cc2O)cc1,21
19,O=C(Nc1nc(-c2ccc(Cl)s2)cs1)c1cccs1,19.5
20,C[C@]12N[C@H](Cc3ccccc31)c1ccccc12,> 30
21,O=C(NC1CCN(c2cc(-c3ccc(Cl)cc3)[nH]n2)C1)c1ccccc1 (centres undefined),> 30
22,Fc1ccc(Nc2nccc(-c3ccncc3)n2)cc1F,16
23,O=[S+]([O-])(Nc1nccs1)c1ccc(NCc2cc(F)cc(Cl)c2O)cc1,> 30
24,Cc1ccc(-c2cc(C(=O)NC3CCCCC3)c3ccccc3n2)cc1,9.42
